Data reported in patent publication US5843941A, “Ras farnesyl transferase inhibitors” (Genentech, Inc., priority 1994, dated 1998).
Read-outs that look alike come from different tables or passages of the source.

What was measured:
[1] = test system: farnesylated proteins F1, F2 and F3 in Met18b-2 cells; assay: Inhibition of intracellular farnesylation in intact Met18b-2 cells, Triton-soluble proteins F1, F2, F3; format: cell-based, Chinese hamster; conditions: for EC90: Cricetulus griseus, read-out: EC 90% "B isomer"
From the text: To study farnesylation in intact cells we used Met18b-2 cells, a line of Chinese hamster ovary (CHO) cells that takes up [3H]mevalonate efficiently (see Faust, J., and Krieger, M. J. Biol. Chem. 262, 1966 (1987)) owing to the production of a mevalonate transport protein (see Kim, C. M., Goldstein, J. L., Brown, M. S. J. Biol. Chem. 267, 23113 (1992)). The [3H]mevalonate is converted by the cells into [3H]farnesyl pyrophosphate and [3H]geranylgeranyl pyrophosphate, which are then attached to proteins (Kim, C. M., Goldstein, J. L., Brown, M. S. J. Biol. Chem. 267, 23113 (1992)). In the assay, stock cultures of Met18b-2 cells were seeded at a density of 3-105 cells per 60 mm dish in 3 ml of medium A (Dulbecco's modified Eagle medium/Ham's F12 medium (1:1, v/v) containing 100 U/ml penicillin and 100 μg/ml streptomycin) supplemented with 5% (v/v) fetal calf serum (FCS). On day 3, each monolayer was refed with 1 ml medium A supplemented with 1% FCS (dialyzed against 0.15 M NaCl). At this point the cells were treated with 100 μM compactin (see Brown, M. S., Faust, J. R., Goldstein, J. L., Kaneko, I., and Endo, A. J. Biol. Chem. 253, 1121 (1978)) which blocks the synthesis of unlabeled mevalonate within the cells. Each compound was dissolved at 25 mM in DMSO/10 mM DTT immediately before use and 10 μl of this solution added directly. After 2 hr incubation at 37° C., each monolayer received 100 μCi [3H]mevalonate (60 Ci/mmol, American Radiolabeled Chemicals, Inc.) added in 100 μl of the medium A, and the incubation continued for 4 hr. The cells were harvested by rinsing three times with 3 ml of 50 mM Tris-HCl/0.15 M NaCl (pH 7.5). 300 μl of lysis buffer (0.5X Dulbecco's phosphate-buffered saline containing 1% Triton X-100, 5 μg/ml leupeptin, 5 μg/ml pepstatin, 0.5 mM phenylmethylsulfonyl fluoride, and 0.05 U/ml aprotinin) was added to each monolayer. After incubation on ice for 5 mon, the lysates were centrifuged 30 sec in a microfuge at 12,000 g. The resulting supernatant was tranferred to a new tube, and each pellet was resuspended in 60 μl of lysis buffer. Protein concentrations were determined using the BCA protein assay reagent (Pierce) according to the manufacturer's instructions. Detergent-soluble (supernatant) and -insoluble (pellet) samples were mixed with 2X SDS sample buffer (see Laemmli, U. K. Nature 227, 680 (1970)) and heated at 95° C. for 5 min before electrophoresis. Each lane contained 90 μg protein, and was run on a 12.5% SDS-polyacrylamide gel. The gel was dried, treated with ENTENSIFY (NEN-DuPont), and exposed to Kodak XOMAT-AR film for 9 h at -80° C. to allow visualization of all prenylated proteins. Migration of [14C]methylated molecular weight standards (Amersham) were used as markers.
The results of this assay are shown in FIG. 3, using a final concentration of 250 μM for each inhibitor. […] As shown in the figure, none of the control peptides or control benzodiazepine-peptideomimetics altered the prenylation of proteins in intact cells.
Using the same cells and procedures followed above for Example 125, we measured the dose dependence upon the inhibition of farnesylation in intact cells. […] Compound 37B inhibited the famesylation of F1-3 detectably at 10 μM, and almost completely at 25 μM.
In this manner, it is possible to obtain data regarding the comparative potency of these inhibitors upon the level of intracellular farnesylation. We have chosen to report the EC90% values for these inhibitors as the concentration required for a reduction in the Triton- soluble labelling (denoted F-1, F-2, and F-3) to 90% of control cells (untreated).

[2] = target: T1, CAAX farnesyltransferase (Rattus norvegicus, UniProt Q02293+Q04631); assay: In vitro farnesylation of the compound by CAAX farnesyltransferase (substrate test, thin layer chromatography); format: biochemical; conditions: relative to tetrapeptide CVIM, 3.6 μM, 37° C., 30 min; for % farnesylation "A": diastereomer A; for % farnesylation "B": diastereomer B
Procedure: After incubation at 37° C. for 30 min, the reaction was stopped by addition of 2 μl of 250 mM EDTA, and the entire reaction mixture was spotted onto a plastic-backed Silica Gel G thin layer sheet (20×20 cm, Brinkmann Inst.) and placed in a tank containing n-propyl alcohol/ammonium hydroxide/water (6:3:1 v/v/v).

[3] = target: T1, CAAX farnesyltransferase; assay: In vitro inhibition of CAAX farnesyltransferase; format: biochemical; parameters: purified to homogeneity from rat brain homogenates; from tissue; host or cells: rat brain; alternatively recombinant enzyme from a baculovirus expression system; conditions: Table D
Procedure: All compounds were tested for in vitro inhibition of CAAX protein farnesyltransferase. […] Alternatively, recombinant CAAX protein farnesyltransferase was also used in this assay. […] Seventy-two hrs after infection, the cells were harvested and disrupted and the enzyme isolated by chromatography on Q-Sepharose.
After incubation for 30 min at 37° C., the amount of [3H]famesyl group transferred to p21H-ras was measured by precipitation with SDS/trichloroacetic acid, filtration onto nitrocellulose, and scintillation counting.
Structures of the compounds tested are reproduced below. Compound numbers also refer to example numbers above.

[4] = diastereomer A, read-out: EC50 (μM) "A"
[5] = diastereomer B, read-out: EC50 (μM) "B"

T1 sequence (Q02293 whole entry, one chain of several): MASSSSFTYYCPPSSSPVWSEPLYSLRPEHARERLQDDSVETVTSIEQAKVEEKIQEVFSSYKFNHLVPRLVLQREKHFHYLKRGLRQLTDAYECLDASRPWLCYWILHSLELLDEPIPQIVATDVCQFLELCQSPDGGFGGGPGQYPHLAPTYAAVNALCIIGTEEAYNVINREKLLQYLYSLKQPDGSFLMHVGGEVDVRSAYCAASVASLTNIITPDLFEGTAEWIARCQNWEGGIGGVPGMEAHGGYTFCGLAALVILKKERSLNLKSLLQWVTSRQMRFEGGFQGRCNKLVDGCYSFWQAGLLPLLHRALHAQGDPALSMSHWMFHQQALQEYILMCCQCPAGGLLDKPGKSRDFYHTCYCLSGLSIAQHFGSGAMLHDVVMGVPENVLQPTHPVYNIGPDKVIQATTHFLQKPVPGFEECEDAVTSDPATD

SMILES	relative potency in intact cells ([1]; dose dependence, FIG. 4, compared with 27B and 37B)	% farnesylation "A" [2] [%]	% farnesylation "B" [2] [%]	EC50 [3, 4] [µM]	EC50 [3, 5] [µM]	EC90 [1] [nM]
CSCC[C@H](NC(=O)CN1C(=O)C(N(C)C(=O)[C@@H](N)CS)N=C(c2ccccc2)c2ccccc21)C(N)=O (single isomer, unassigned) [33B, N-[[3-[(2-amino-3-mercapto-1-oxopropyl)methylamino]-2,3-dihydro-2-oxo-5phenyl-1H-1,4-benzodiazepin-1-yl]acetyl]-L-methionine amide]	of intermediate potency	–	–	–	–	–
CSCC[C@H](NC(=O)CN1C(=O)C(NC(=O)[C@@H](N)CS)N=C(c2ccccc2)c2ccccc21)C(=O)O (stereo partly drawn) [compound 28, N-[[3-[(2-amino-3-mercapto-1-oxopropyl)amino]-2,3-dihydro-2-oxo-5phenyl-1H-1,4-benzodiazepin-1-yl]acetyl]-L-methionine]	–	9	< 1	0.38	0.431	–
CSCC[C@H](NC(=O)CN1C(=O)C(N(C)C(=O)CCS)N=C(c2ccccc2)c2ccccc21)C(=O)O (stereo partly shown) [compound 29]	–	< 1	< 1	1.8	1.8	–
CN(C(=O)[C@@H](N)CS)C1N=C(c2ccccc2)c2ccccc2N(CC(=O)N[C@@H](CO)C(=O)O)C1=O (stereo partly shown) [compound 30]	–	< 1	< 1	10	0.0084	–
CC(C)C[C@H](NC(=O)CN1C(=O)C(N(C)C(=O)[C@@H](N)CS)N=C(c2ccccc2)c2ccccc21)C(=O)O (stereo partly drawn) [compound 31, N-[[3-[(2-amino-3-mercapto-1-oxopropyl)methylamino]-2,3-dihydro-2-oxo-5-phenyl-1H -1,4-benzodiazepin-1-yl]acetyl]-L-leucine]	–	< 1	< 1	0.084	0.0021	–
CSCC[C@H](NC(=O)CN1C(=O)C(N(C)C(=O)[C@H](CS)NC(C)=O)N=C(c2ccccc2)c2ccccc21)C(=O)O (stereo partly drawn) [compound 32, N-[[3-[(2-acetylamino-3-mercapto-1-oxopropyl)methylamino]-2,3-dihydro-2-oxo-5-phenyl-1H-1,4-benzodiazepin-1-yl]acetyl]-L-methionine]	–	110	< 1	1.2	8	–
CN(C(=O)[C@@H](N)CS)C1N=C(c2ccccc2)c2ccccc2N(CC(=O)N[C@@H](Cc2ccccc2)C(=O)O)C1=O (stereo partly drawn) [compound 34, N-[[3-[(2-amino-3-mercapto-1-oxopropyl)methylamino]-2,3-dihydro-2-oxo-5-phenyl-1H-1,4-benzodiazepin-1-yl]acetyl]-L-phenylalanine]	–	–	< 1	0.54	0.0005	–
COC(=O)[C@H](CCSC)NC(=O)CN1C(=O)C(N(C)C(=O)[C@@H](N)CS)N=C(c2ccccc2)c2ccccc21 (stereo partly shown) [compound 37]	–	< 1	2	0.19	0.05	–
CSCC[C@H](NC(=O)CN1C(=O)C(N(C)C(=O)C2CSC(C)N2)N=C(c2ccccc2)c2ccccc21)C(=O)O (stereo partly drawn) [compound 43, N-[[3-[(2-methylthiazolidine-4-carboxyl)methylamino] -2,3-dihydro-2-oxo-5-phenyl-1H-1,4-benzodiazepin-1-yl]acetyl]-L-methionine]	–	< 1	< 1	0.32	0.006	–
CC(C)C[C@H](NC(=O)CN1C(=O)C(N(C)C(=O)[C@@H](N)CS)N=C(c2ccccc2)c2ccccc21)c1nnn[nH]1 (stereo partly drawn) [compound 46, N-[[3-[(2-amino-3-mercapto-1-oxopropyl)methylamino]-2,3-dihydro-2-oxo-5-phenyl-1H-1,4-benzodiazepin-1-yl]acetyl]-L-leucine tetrazole]	–	–	< 1	0.26	0.0016	–
COC(=O)c1cccc(CN2C(=O)C(N(C)C(=O)[C@@H](N)CSSC(C)(C)C)N=C(c3ccccc3)c3cc(Cl)ccc32)c1 (stereo partly shown) [compound 99, N-[[3-[(2-amino-3-tert-butylthiomercapto-1-oxopropyl)methylamino]-2,3-dihydro-2-oxo-5-phenyl-7-chloro-1H-1,4-benzodiazepin-1-yl]methyl]-3-carboxymethylbenzene]	–	–	–	–	0.38	30000
COC(=O)c1cccc(CN2C(=O)C(N(C)C(=O)[C@@H]3CSC(C)N3)N=C(c3ccccc3)c3cc(Cl)ccc32)c1 (stereo partly shown) [compound 100, N-[[3-[(2-methylthiazolidine-4-carboxyl)methylamino]-2,3-dihydro-2-oxo-5-phenyl-7-chloro-1H-1,4-benzodiazepin-1-yl]methyl]-3-carboxymethylbenzene]	–	–	–	0.52	0.034	30000
CN(C(=O)[C@@H](N)CS)C1N=C(c2ccccc2)c2cc(Cl)ccc2N(Cc2ccc(C#N)cc2)C1=O (stereo partly shown) [compound 101, N-[[3-[(2-amino-3-mercapto-1-oxopropyl)methylamino]-2,3-dihydro-2-oxo-5-phenyl-7-chloro-1H-1,4-benzodiazepin-1-yl]methyl]4-benzonitrile]	–	–	–	3	0.0009	20000
CN(C(=O)[C@@H](N)CS)C1N=C(c2ccccc2)c2cc(Cl)ccc2N(Cc2ccc(C(F)(F)F)cc2)C1=O (stereo partly shown) [compound 106, N-[[3-[(2-amino-3-mercapto-1-oxopropyl)methylamino]-2,3-dihydro-2-oxo-5-phenyl-7-chloro-1H-1,4-benzodiazepin-1-yl]methyl]-4-trifluoromethylbenzene]	–	–	–	0.65	0.018	50000
CN(C(=O)[C@@H](N)CS)C1N=C(c2ccccc2)c2cc(Cl)ccc2N(Cc2ccc(F)cc2)C1=O (stereo partly shown) [compound 108, N-[[3-[(2-amino-3-mercapto-1-oxopropyl)methylamino]-2,3-dihydro-2-oxo-5-phenyl-7-chloro-1H-1,4-benzodiazepin-1-yl]methyl]-4-fluorobenzene]	–	–	–	0.0018	0.0018	50000
CCOC(=O)[C@H](CCSC)NC(=O)CN1C(=O)C(N(C)C(=O)C2CSC(C)N2)N=C(c2ccccc2)c2ccccc21 (stereo partly drawn) [compound 109, N-[[3-[(2-methylthiazolidine-4-carboxyl)methylamino]-2,3-dihydro-2-oxo-5-phenyl-1H-1,4-benzodiazepin-1-yl]acetyl]-L-methionine ethyl ester]	–	–	–	3.1	0.1	10000
